Data taken from patent US20060281771A1, “SYNERGISTIC MODULATION OF FLT3 KINASE USING AMINOQUINOLINE AND AMINOQUINAZOLINE KINASE MODULATORS” (priority 2005, published 2006).

The compounds below were run on MV4-11 cells (assay: Inhibition of MV4-11 cell proliferation (CellTiterGlo, 72 h)). Settings: Homo sapiens; 72 h growth inhibition.
Format: cell-based
How it was run: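 MV4-11 (FLT3-ITD) cells, 10,000/well in RPMI/10% FBS with 1 ng/ml GM-CSF, treated 72 h at 37 °C; some runs in 1:1 medium/human plasma. Growth read as ATP luminescence; 100% inhibition = Day 0 RLU, 0% = DMSO at Day 3. IC50 from sigmoidal variable-slope fit of triplicates.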

Question: Which IC50 does the source give for `CCN(CC)CC#Cc1ccc2ncnc(N3CCC(OC(=O)Nc4ccc(C(C)C)cc4)C3)c2c1` (centres unmarked) [Compound 17, (4-Isopropyl-phenyl)-3-carbamic acid 1-[6-(3-diethylamino-prop-1-ynyl)-quinazolin-4-yl]-pyrrolidin-3-yl ester] here?
Answer: Its IC50 is 0.122 µM.

Question: Which IC50 does the source give for `COc1cc2ncc(C#N)c(N3CCC(NC(=O)Nc4ccc(C(C)C)cc4)C3)c2cc1OC` (centres unmarked) [Compound 26, 1-[1-(3-Cyano-6,7-dimethoxy-quinolin-4-yl)-pyrrolidin-3-yl]-3-(4-isopropyl-phenyl)-urea] here?
Answer: The IC50 was 1.9 µM.

Question: How did the IC50 turn out when `COc1cc2ncnc(N3CCC(OC(=O)Nc4ccc(OC5CCC5)nc4)C3)c2cc1OC` (centres unmarked) [Compound 12, (6-Cyclobutoxy-pyridin-3-yl)-carbamic acid 1-(6,7-dimethoxy-quinazolin-4-yl)-pyrrolidin-3-yl ester] was run?
Answer: The IC50 was 0.064 µM.

Question: For `COc1cc2ncnc(N3CCC(N(C)C(=O)Nc4ccc(OC(C)C)cc4)C3)c2cc1OC` (centres unmarked) [Compound 36, 1-[1-(6,7-Dimethoxy-quinazolin-4-yl)-pyrrolidin-3-yl]-3-(4-isopropoxy-phenyl)-1-methyl-urea], which IC50 is on record?
Answer: The IC50 was 3.19 µM.

Question: How did the IC50 turn out when `COc1cc2ncc(C#N)c(N3CCC(NC(=O)Nc4ccc(OC(C)C)cc4)C3)c2cc1OC` (centres unmarked) [Compound 29, 1-[1-(3-Cyano-6,7-dimethoxy-quinolin-4-yl)-pyrrolidin-3-yl]-3-(4-isopropoxy-phenyl)-urea] was run?
Answer: The IC50 was 1.7 µM.

Question: With `COc1cc2ncnc(N3CCC(CC(=O)Nc4ccc(C(C)C)cc4)C3)c2cc1OC` (centres unmarked) [Compound 6, 2-[11-(6,7-Dimethoxy-quinazolin-4-yl)-pyrrolidin-3-yl]-N-(4-isopropyl-phenyl)-acetamide] as the compound, how does the IC50 read?
Answer: The IC50 was 0.008 µM.

Question: How did the IC50 turn out when `COc1cc2ncc(C#N)c(N3CCC(OC(=O)Nc4ccc(C(C)C)cc4)C3)c2cc1OC` (centres unmarked) [Compound 37, (4-Isopropyl-phenyl)-carbamic acid 1-(3-cyano-6,7-dimethoxy-quinolin-4-yl)-pyrrolidin-3-yl ester] was run?
Answer: Its IC50 is 1.5 µM.

Question: `CC(C)c1ccc(NC(=O)OC2CCN(c3ncnc4ccc(I)cc34)C2)cc1` (centres unmarked) [Compound 20, (4-Isopropyl-phenyl)-carbamic acid 1-(6-iodo-quinazolin-4-yl)-pyrrolidin-3-yl ester] was tested. Which IC50 did it give?
Answer: The IC50 was 0.262 µM.

Question: Which IC50 does the source give for `COc1cc2ncnc(N3CCC(NC(=O)Cc4ccc(C(C)C)cc4)C3)c2cc1OC` (centres unmarked) [Compound 35, N-[1-(6,7-Dimethoxy-quinazolin-4-yl)-pyrrolidin-3-yl]-2-(4-isopropyl-phenyl)-acetamide] here?
Answer: The IC50 was 1.9 µM.

Question: Which IC50 does the source give for `COc1cc2ncc(C#N)c(N3CCC(OC(=O)Nc4ccc(OC(C)C)cc4)C3)c2cc1OC` (centres unmarked) [Compound 32, (4-Isopropoxy-phenyl)-carbamic acid 1-(3-cyano-6,7-dimethoxy-quinolin-4-yl)-pyrrolidin-3-yl ester] here?
Answer: The IC50 was 1.4 µM.

Question: For `COc1cc2ncnc(N3CCC(CNC(=O)Nc4ccc(C(C)C)cc4)CC3)c2cc1OC` [Compound 18, 1-[1-(6,7-Dimethoxy-quinazolin-4-yl)-piperidin-4-ylmethyl]-3-(4-isopropyl-phenyl)-urea], which IC50 is on record?
Answer: Its IC50 is 1.3 µM.

Question: `CC(C)c1ccc(NC(=O)OC2CCN(c3ncnc4ccc(C#CCO)cc34)C2)cc1` (centres unmarked) [Compound 14, (4-Isopropyl-phenyl)-carbamic acid 1-[6-(3-hydroxy-prop-1-ynyl)-quinazolin-4-yl]-pyrrolidin-3-yl ester] was tested. Which IC50 did it give?
Answer: The IC50 was 0.136 µM.

Question: For `COc1cc2ncnc(N3CCC(NC(=O)Cc4ccc(C(C)C)cc4)CC3)c2cc1OC` [Compound 21, N-[1-(6,7-Dimethoxy-quinazolin-4-yl)-piperidin-4-yl]-2-(4-isopropyl-phenyl)-acetamide], which IC50 is on record?
Answer: Its IC50 is 0.078 µM.

Question: With `COc1cc2ncnc(N3CCC(OC(=O)Nc4ccc(OC(C)C)cc4)C3)c2cc1OC` (centres unmarked) [Compound 15, (4-Isopropoxy-phenyl)-carbamic acid 1-(6,7-dimethoxy-quinazolin-4-yl)-pyrrolidin-3-yl ester] as the compound, how does the IC50 read?
Answer: The IC50 was 0.866 µM.

Question: `COc1cc2ncnc(N3CCCC(NC(=O)Nc4ccc(C(C)C)cc4)C3)c2cc1OC` (centres unmarked) [Compound 28, 1-[1-(6,7-Dimethoxy-quinazolin-4-yl)-piperidin-3-yl]-3-(4-isopropyl-phenyl)-urea] was tested. Which IC50 did it give?
Answer: The IC50 was 1.5 µM.

Question: `COc1cc2ncnc(N3CCC(C(=O)Nc4ccc(C(C)C)cc4)CC3)c2cc1OC` [Compound 13, 1-(6,7-Dimethoxy-quinazolin-4-yl)-piperidine-4-carboxylic acid (4-isopropyl-phenyl)-amide] was tested. Which IC50 did it give?
Answer: The IC50 was 0.855 µM.

Question: With `COc1cc2ncnc(N3CCC(NC(=O)Nc4ccc(C(C)C)cc4)C3)c2cc1OC` (centres unmarked) [Compound 7, 1-[1-(6,7-Dimethoxy-quinazolin-4-yl)-pyrrolidin-3-yl]-3-(4-isopropyl-phenyl)-urea] as the compound, how does the IC50 read?
Answer: Its IC50 is 0.909 µM.

Question: With `COc1cc2ncnc(N3CCC(OC(=O)Nc4ccc(C(C)C)cc4)CC3)c2cc1OC` [Compound 1, (4-Isopropyl-phenyl)-carbamic acid 1-(6,7-dimethoxy-quinazolin-4-yl)-piperidin-4-yl ester] as the compound, how does the IC50 read?
Answer: Its IC50 is 0.181 µM.

Question: For `CC(C)c1ccc(NC(=O)NC2CCN(c3ncnc4ccccc34)C2)cc1` (centres unmarked) [Compound 16, 1-(4-Isopropyl-phenyl)-3-(1-quinazolin-4-yl-pyrrolidin-3-yl)urea], which IC50 is on record?
Answer: Its IC50 is 0.278 µM.

Question: With `COc1cc2ncnc(N3CCC(N(C)C(=O)Nc4ccc(C(C)C)cc4)C3)c2cc1OC` (centres unmarked) [Compound 19, 1-[1-(6,7-Dimethoxy-quinazolin-4-yl)-pyrrolidin-3-yl]-3-(4-isopropyl-phenyl)-1-methyl-urea] as the compound, how does the IC50 read?
Answer: Its IC50 is 1.38 µM.

Question: For `COc1cc2ncnc(N3CCCCC3COC(=O)Nc3ccc(C(C)C)cc3)c2cc1OC` (centres unmarked) [Compound 33, (4-Isopropyl-phenyl)-carbamic acid 1-(6,7-dimethoxy-quinazolin-4-yl)-piperidin-2-ylmethyl ester], which IC50 is on record?
Answer: The IC50 was 0.343 µM.

Question: Which IC50 does the source give for `COc1cc2ncnc(N3CCC(OC(=O)Nc4ccc(C(C)C)cc4)C3)c2cc1OC` (centres unmarked) [Compound 2, (4-Isopropyl-phenyl)-carbamic acid 1-(6,7-dimethoxy-quinazolin-4-yl)-pyrrolidin-3-yl ester] here?
Answer: The IC50 was 0.248 µM.

Question: For `COc1cc2ncnc(N3CCC(CC(=O)Nc4ccc(C(C)C)cc4)CC3)c2cc1OC` [Compound 5, 2-[1-(6,7-Dimethoxy-quinazolin-4-yl)-piperidin-4-yl]-N-(4-isopropyl-phenyl)-acetamide], which IC50 is on record?
Answer: The IC50 was 0.007 µM.

Question: With `COc1cc2ncnc(N3CCCC3COC(=O)Nc3ccc(C(C)C)cc3)c2cc1OC` (centres unmarked) [Compound 9] as the compound, how does the IC50 read?
Answer: Its IC50 is 0.196 µM.

Question: How did the IC50 turn out when `COc1cc2ncnc(N3CCC(NC(=O)Nc4ccc(OC(C)C)cc4)C3)c2cc1OC` (centres unmarked) [Compound 8, 1-[1-(6,7-Dimethoxy-quinazolin-4-yl)-pyrrolidin-3-yl]-3-(4-isopropoxy-phenyl)-urea] was run?
Answer: Its IC50 is 1.88 µM.

Question: How did the IC50 turn out when `COc1cc2ncnc(N3CCCC(COC(=O)Nc4ccc(C(C)C)cc4)C3)c2cc1OC` (centres unmarked) [Compound 4] was run?
Answer: Its IC50 is 0.086 µM.

Question: `COc1cc2ncnc(N3CCC(OC(=O)Nc4ccc(OC(C)C)cc4)CC3)c2cc1OC` [Compound 3, (4-Isopropoxy-phenyl)-carbamic acid 1-(6,7-dimethoxy-quinazolin-4-yl)-piperidin-4-yl ester] was tested. Which IC50 did it give?
Answer: Its IC50 is 0.467 µM.

Question: `COc1cc2ncnc(N3CCCC(OC(=O)Nc4ccc(C(C)C)cc4)C3)c2cc1OC` (centres unmarked) [Compound 31, (4-Isopropyl-phenyl)-carbamic acid 1-[1-(6,7-dimethoxy-quinazolin-4-yl)-piperidin-3-yl]ester] was tested. Which IC50 did it give?
Answer: Its IC50 is 1.7 µM.

Question: For `COc1cc2ncnc(N3CCC(C(=O)Nc4ccc(OC(C)C)cc4)CC3)c2cc1OC` [Compound 23, 1-(6,7-Dimethoxy-quinazolin-4-yl)-piperidine-4-carboxylic acid (4-isopropoxy-phenyl)-amide], which IC50 is on record?
Answer: The IC50 was 1.98 µM.
